From patent US4160768A, “Anti-inflammatory 3-benzofuranyl imidazothiazole” (Diamond Shamrock Corporation, priority 1978, dated 1979)
Where a name gives a salt, the structure may show the parent alone. Read-outs that look alike come from different tables or passages of the source.

Assays:
[1] = adjuvant-induced arthritis test (Newbould); format: in vivo, rat
Description: Selected compounds were further subjected to advanced evaluations. Specifically, in view of the interesting activity of compounds 1 and 9, those compounds were further subjected to the adjuvant-induced arthritis test. This test requires one month (from day 0 to day 31). In the first seventeen days (0-17), the disease is in a developing stage, while for the remainder of the month (18-31) the disease is fully developed.
The method is essentially that of Newbould, Brit. J. Pharmacol. 21: 127, 1963. The test compounds were studied in the developing arthritis state and in the established arthritic state. Separate groups of twelve rats were administered the compounds orally using methylcellulose as the vehicle. In the study on the developing disease, administration of the test compounds begins on day 1 and on day 2 each animal is injected with 0.05 ml/kg of a 0.5% suspension of heat-killed Mycobacterium tuberculosis into the planter surface of the left hind paw. Foot volumes were measured by a water displacement device on the day of administration of the Mycobacterium and again on days 3, 10 and 17. The test compounds were administered once daily. Body weights were recorded daily and the animals were examined for the spread of the inflammation and the degree of secondary lesions. For study in the established disease, another group of rats are injected with the Mycobacterium and foot volumes are measured. After twenty days volumes are again measured and administration of the test compounds begins and continues for eleven days. Foot volume measurements are repeated on day 27 and day 31. The extent of the spread of the inflammation and the degree of lesions are recorded daily as are the body weights. The effect of the test compounds is measured by the percentage reduction in left hind paw volumes as compared to the hind paw volumes of the control groups.

[2] = adrenalectomized assay (carrageenin edema in adrenalectomized rats); format: in vivo, Adrenalectomized Sprague Dawley Male Rats; conditions: Rattus norvegicus, po, 3 h, read-out: % Reduction (adrenalectomized rats)
Method: (§1) The procedure used for measuring the inhibition of carrageenin-induced edema is a slight modification of the method of Winter et al., Proc. Soc. Explt. Biol. Med. 111: 544 (1962). The device used for measurement of the paw volume is an adaptation of the water displacement procedure described by Adamkiewicz et al., Can. J. Biochem. Physiol. 33: 332 (1955). The above compounds were studied for their effectiveness in preventing the edema caused by the intraplantar injection of 0.05 ml of a sterile 1.0% solution of carrageenin. Compounds were administered orally, except when indicated as intraperitoneally (i.p.), one hour prior to the injection of the carrageenin into the left hind paw of rats. At peak swelling time (3 hours) the volume of edema was calculated by differential paw volumes.
Next, certain of the compounds were subjected to a secondary screen designated the adrenalectomized assay. In this series of tests, the method used was identical to that described above, except that the animals used were adrenalectomized several days prior to assay. Since the results in the nonadrenalectomized animals were similar to those obtained in the adrenalectromized animals, it can be inferred that the antiinflammatory activity of the test compounds was not caused by the release of endogeneous adrenocortical steriods.

[3] = carrageenin-induced edema in the hind paw of the rat (modified Winter et al.); format: in vivo; conditions: for ED50: dose which reduced edema formation by about 25% or more vs mean control in 50% of the animals
Method: as §1
Table I (in which Ph=phenyl) sets forth results obtained at the indicated dosages with compounds (or their salts) of the formula [drawing 8]
Following the procedure set forth in Example 4, hydrated compounds according to the following formula were evaluated for antiinflammatory effect with the results shown in Table II: [drawing 9]
Certain of the compounds of the invention were further tested to determine their ED50 values. […] Typical results of these tests appear in Table III.

[4] = Rattus norvegicus, po, 3 h, Table I, 50 mg/kg, oral, 1 h before carrageenin, 3 h, read-out: Reduction % (carrageenin edema)
[5] = Rattus norvegicus, po, 3 h, Table I, 25 mg/kg, oral, 1 h before carrageenin, 3 h, read-out: Reduction % (carrageenin edema)
[6] = Rattus norvegicus, po, 3 h, Table I, 40 mg/kg, oral, 1 h before carrageenin, 3 h, read-out: Reduction % (carrageenin edema)

C1=C(c2ccccc2)N2CCN=C2S1 [Compound 1]
% reduction in swelling, hind paws ([1]; 20 mg/kg, day 3, developing (prophylactic)): 18%
% reduction in swelling, hind paws ([1]; 20 mg/kg, day 10, developing (prophylactic)): 13%
% reduction in swelling, hind paws ([1]; 20 mg/kg, day 17, developing (prophylactic)): 18%
% reduction in swelling, hind paws ([1]; 20 mg/kg, day 20, developed (therapeutic)): 5%
% reduction in swelling, hind paws ([1]; 20 mg/kg, day 27, developed (therapeutic)): 0%
% reduction in swelling, hind paws ([1]; 20 mg/kg, day 31, developed (therapeutic)): 0%
% reduction in swelling, hind paws ([1]; 40 mg/kg, day 3, developing (prophylactic)): 10%
% reduction in swelling, hind paws ([1]; 40 mg/kg, day 10, developing (prophylactic)): 21%
% reduction in swelling, hind paws ([1]; 40 mg/kg, day 17, developing (prophylactic)): 43%
% reduction in swelling, hind paws ([1]; 40 mg/kg, day 20, developed (therapeutic)): 4%
% reduction in swelling, hind paws ([1]; 40 mg/kg, day 27, developed (therapeutic)): 14%
% reduction in swelling, hind paws ([1]; 40 mg/kg, day 31, developed (therapeutic)): 8%
inhibition in vivo at 50 mg/kg [2]: 32%
inhibition in vivo at 50 mg/kg [3, 4]: 47%
ED50 ([3]; Rattus norvegicus, po, 3 h): 25 mg/kg

Cc1ccc(C2=CSC3=NCCN23)cc1C [Compound 2]
inhibition in vivo at 50 mg/kg [3, 4]: 27%

CSC1=C(C(C)(C)C)N2CCN=C2S1 [Compound 3, 2-methylthio-3-t-butyl-5,6-dihydro-4H-imidazo-[2,1-b] thiazole hydrobromide]
inhibition in vivo at 50 mg/kg [3, 4]: 26%

CCC1=C(c2ccccc2)N2CCN=C2S1 [Compound 4]
inhibition in vivo at 25 mg/kg [2]: 31%
inhibition in vivo at 25 mg/kg [3, 5]: 41%

CCC1=C(c2ccc(Cl)cc2)N2CCN=C2S1 [Compound 5]
inhibition in vivo at 25 mg/kg [2]: 15%
inhibition in vivo at 25 mg/kg [3, 5]: 33%

CC1=C(c2ccc(Cl)cc2)N2CCN=C2S1 [Compound 6]
inhibition in vivo at 25 mg/kg [2]: 19%
inhibition in vivo at 25 mg/kg [3, 5]: 45%

Brc1ccc(C2=CSC3=NCCN23)cc1 [Compound 7]
inhibition in vivo at 50 mg/kg [3, 4]: 70%

CC(C)(C)C1=CSC2=NCCN12 [Compound 8]
inhibition in vivo at 25 mg/kg [2]: 23%
inhibition in vivo at 50 mg/kg [3, 4]: 56%

CC1=CSC2=NCCN12 [Compound 9]
% reduction in swelling, hind paws ([1]; 24 mg/kg, day 3, developing (prophylactic)): 21%
% reduction in swelling, hind paws ([1]; 24 mg/kg, day 10, developing (prophylactic)): 23%
% reduction in swelling, hind paws ([1]; 24 mg/kg, day 17, developing (prophylactic)): 15%
% reduction in swelling, hind paws ([1]; 24 mg/kg, day 20, developed (therapeutic)): 5%
% reduction in swelling, hind paws ([1]; 24 mg/kg, day 27, developed (therapeutic)): 0%
% reduction in swelling, hind paws ([1]; 24 mg/kg, day 31, developed (therapeutic)): 0%
% reduction in swelling, hind paws ([1]; 50 mg/kg, day 3, developing (prophylactic)): 18%
% reduction in swelling, hind paws ([1]; 50 mg/kg, day 10, developing (prophylactic)): 17%
% reduction in swelling, hind paws ([1]; 50 mg/kg, day 17, developing (prophylactic)): 6%
% reduction in swelling, hind paws ([1]; 50 mg/kg, day 20, developed (therapeutic)): 3%
% reduction in swelling, hind paws ([1]; 50 mg/kg, day 27, developed (therapeutic)): 3%
% reduction in swelling, hind paws ([1]; 50 mg/kg, day 31, developed (therapeutic)): 7%
inhibition in vivo at 25 mg/kg [2]: 46%
inhibition in vivo at 50 mg/kg [3, 4]: 46%
ED50 ([3]; Rattus norvegicus, po, 3 h): 20 mg/kg

C1=C(c2cccc3ccccc23)N2CCN=C2S1 [Compound 10]
inhibition in vivo at 50 mg/kg [2]: 18%
inhibition in vivo at 50 mg/kg [3, 4]: 58%

CC(C)(C)C1=CSC2=NCCN12 [Compound 11]
Reduction (%) (carrageenin edema) ([3]; Table I, 50 mg/kg, oral, 1 h before carrageenin, 3 h, 50 mg/kg): 48%

CC1CN2C(C(C)(C)C)=CSC2=N1 (stereo not drawn) [Compound 12]
inhibition in vivo at 50 mg/kg [3, 4]: 54%

CC1=CSC2=NC(C)CN12 (stereo not drawn) [Compound 13]
inhibition in vivo at 50 mg/kg [3, 4]: 24%

CC1=C(c2ccccc2)N2CCN=C2S1 [Compound 14]
inhibition in vivo at 50 mg/kg [3, 4]: 49%

CC1=C(c2ccccc2)SC2=NCCN21 [Compound 15]
inhibition in vivo at 50 mg/kg [3, 4]: 53%

CC1CN2C(c3ccc(Cl)cc3)=CSC2=N1 (stereo not drawn) [Compound 16]
inhibition in vivo at 50 mg/kg [2]: 16%
inhibition in vivo at 50 mg/kg [3, 4]: 58%

CC1CN2C(c3ccc([N+](=O)[O-])cc3)=CSC2=N1 (stereo not drawn) [Compound 17]
inhibition in vivo at 50 mg/kg [2]: 60%
inhibition in vivo at 50 mg/kg [3, 4]: 48%

CC1CN2C(c3ccc(Cl)c(Cl)c3)=CSC2=N1 (stereo not drawn) [Compound 18]
inhibition in vivo at 50 mg/kg [3, 4]: 42%

O=C(O)CC1=C(c2ccccc2)N2CCN=C2S1 [Compound 19, 3-phenyl-5,6-dihydro-4H-imidazo[2,1-b] thiazo-2-yl-acetic acid hydrobromide]
inhibition in vivo at 100 mg/kg ([3]; Rattus norvegicus, ip, 3 h, Table I, 100 mg/kg i.p., 1 h before carrageenin, 3 h, read-out: Reduction % (carrageenin edema)): 24%

Clc1ccc(C[N+]2=C3SC=C(c4ccccc4)N3CC2)cc1Cl [Compound 20]
inhibition in vivo at 20 mg/kg ([3]; Rattus norvegicus, po, 3 h, Table I, 20 mg/kg, oral, 1 h before carrageenin, 3 h, read-out: Reduction % (carrageenin edema)): 36%

Brc1ccc(C2=CSC3=NCCN23)cc1 [Compound 21]
inhibition in vivo at 40 mg/kg [3, 6]: 49%

C#CC[N+]1=C2SC=C(c3ccc(Br)cc3)N2CC1 [Compound 22]
inhibition in vivo at 100 mg/kg ([3]; Rattus norvegicus, po, 3 h, Table I, 100 mg/kg, oral, 1 h before carrageenin, 3 h, read-out: Reduction % (carrageenin edema)): 36%

C#CC(C)[N+]1=C2SC=C(c3ccc(Br)cc3)N2CC1 (stereo not drawn) [Compound 23]
inhibition in vivo at 40 mg/kg [3, 6]: 27%

ClCC=CC[N+]1=C2SC=C(c3ccc(Br)cc3)N2CC1 [Compound 24]
inhibition in vivo at 60 mg/kg ([3]; Rattus norvegicus, po, 3 h, Table I, 60 mg/kg, oral, 1 h before carrageenin, 3 h, read-out: Reduction % (carrageenin edema)): 20%

CC1=CSC2=NCCN12 [Compound 25]
inhibition in vivo at 150 mg/kg ([3]; Rattus norvegicus, po, 3 h, Table I, 150 mg/kg, oral, 1 h before carrageenin, 3 h, read-out: Reduction % (carrageenin edema)): 44%

C#CC[N+]1=C2SC=C(C)N2CC1 [Compound 26]
inhibition in vivo at 40 mg/kg [3, 6]: 31%

C1=C(c2cc3ccccc3o2)N2CCN=C2S1 [Compound 27, 3-(2-benzofuranyl)-5,6-dihydro-4H-imidazo[2,1-b] thiazole]
inhibition in vivo at 40 mg/kg [3, 6]: 40%

Clc1ccc(C2=CSC3=NCCCN23)cc1 [Compound 28]
inhibition in vivo at 25 mg/kg [3, 5]: 29%

CCC1=C(c2ccccc2)N2CCCN=C2S1 [Compound 29, 2-ethyl-3-phenyl-4,5,6,7-tetrahydrothiazole[3,2-a] pyrimidine hydrobromide]
inhibition in vivo at 25 mg/kg [2]: 18%
inhibition in vivo at 50 mg/kg [3, 4]: 76%

C1=C(c2ccccc2)N2CCCN=C2S1 [Compound 30]
inhibition in vivo at 40 mg/kg [3, 6]: 25%

CC1=C(c2ccccc2)N2CCCN=C2S1 [Compound 31]
inhibition in vivo at 40 mg/kg [3, 6]: 48%

O=[N+]([O-])c1ccc(C2=CSC3=NCCCN23)cc1 [Compound 32]
inhibition in vivo at 25 mg/kg [3, 5]: 20%

CC1=C(c2ccc(Cl)cc2)N2CCCN=C2S1 [Compound 33]
inhibition in vivo at 10 mg/kg ([3]; Rattus norvegicus, po, 3 h, Table I, 10 mg/kg, oral, 1 h before carrageenin, 3 h, read-out: Reduction % (carrageenin edema)): 22%

OC1(c2ccccc2)CSC2=NCCN21 (stereo not drawn) [Compound 34]
Reduction (%) (carrageenin edema) ([3]; Table II, 100 mg/kg, oral): 70%

CC1SC2=NCCN2C1(O)c1ccccc1 (stereo not drawn) [Compound 35]
Reduction (%) (carrageenin edema) ([3]; Table II, 150 mg/kg, oral): 68%

OC1(c2ccc(Cl)cc2)CSC2=NCCN21 (stereo not drawn) [Compound 36]
Reduction (%) (carrageenin edema) ([3]; Table II, 25 mg/kg, oral): 57%

OC1(c2ccccc2)CSC2=NCCCN21 (stereo not drawn) [Compound 37]
Reduction (%) (carrageenin edema) ([3]; Table II, 50 mg/kg, oral): 52%

OC1(c2ccc(Cl)cc2)CSC2=NCCCN21 (stereo not drawn) [Compound 38]
Reduction (%) (carrageenin edema) ([3]; Table II, 100 mg/kg, oral): 76%

COc1ccc(C2(O)CSC3=NCCCN32)cc1 (stereo not drawn) [Compound 39]
Reduction (%) (carrageenin edema) ([3]; Table II, 40 mg/kg, oral): 27%
